Read-outs that look alike come from different tables or passages of the source.
Columns and labels:
[1] = Microsomal stability (Human); format: in vitro ADME; details: human microsomes
Method: (§1) Microsomal stability of disclosed compounds was investigated. The following table indicates the percent of compound remaining after 60 minutes.

Plasma stability (Human) = format: in vitro ADME
Method: (§2) Plasma stability of disclosed compounds was investigated. The following table indicates the percent of compound remaining after 60 minutes.

[2] = system: positive (hedonic) 50-kHz ultrasonic vocalizations (USVs); test: Positive Emotional Learning (PEL) test; format: in vivo; details: rat, PO, one hour after administration
Method: Experiments were conducted as described in Burgdorf et al., “The effect of selective breeding for differential rates of 50-kHz ultrasonic vocalizations on emotional behavior in rats,” Devel. […] Rat 50-kHz ultrasonic vocalization (hedonic USVs) is a validated model for the study of positive affective state and is best elicited by rough-and-tumble play.
The PEL assay measures the acquisition of positive (hedonic) 50-kHz ultrasonic vocalizations (USVs) to a social stimulus, heterospecific rough and tumble play stimulation. Heterospecific rough-and-tumble play stimulation was administered by the experimenter's right hand. One hour after administration of test compound or vehicle negative control (0.5% sodium carboxymethyl cellulose in 0.9% sterile saline vehicle), animals received 3 min of heterospecific rough-and-tumble play that consisted of alternating 15 sec blocks of heterospecific play and 15 sec of no-stimulation. […] Frequency modulated 50-kHz USVs that occurred during each of the no-stimulation periods were quantified to measure PEL. Animals were not habituated to play stimulation before testing. Positive emotional learning was measured during the conditioned stimulus (CS) trials preceding the tickle unconditioned stimulus (UCS) trials. Animals received 15 second trials consisting of 6 CS and 6 UCS trials each (3 min total).

[3] = molecular target: T1, NMDAR2C expressing HEK cell membranes (Homo sapiens, UniProt Q05586+Q14957); test: NMDAR agonist assay, [3H]MK-801 binding, NMDAR2C; format: biochemical; details: for EC50: [3H]MK-801 binding
T1 construct: expressed in transfected cells; host or cells: HEK cells (membrane extract)
Method: (§3) (nonequilibrium conditions).
(§4) The baseline value was determined from the best fit curve of the DPM values modeled using the GraphPad program and the log(agonist) vs. response(three parameters) algorithm was then subtracted from all points in the dataset.

Plasma stability (Rat) = format: in vitro ADME
Method: as §2

[4] = molecular target: T2, NMDAR2B expressing HEK cell membranes (Homo sapiens, UniProt Q13224); test: NMDAR agonist assay, [3H]MK-801 binding, NMDAR2B; format: biochemical; details: 50 μM glutamate; relative to 1 mM glycine
T2 construct: expressed in transfected cells; host or cells: HEK cells (membrane extract)
Method: as §3, §4

[5] = molecular target: T3, NMDAR2B expressing HEK cell membranes (Homo sapiens, UniProt Q05586+Q13224); test: NMDAR agonist assay, [3H]MK-801 binding, NMDAR2B; format: biochemical; details: for EC50: [3H]MK-801 binding; for Emax: relative to 1 mM glycine, read-out: NMDAR2B: % maximal [3H]MK-801 binding relative to 1 mM glycine
T3 construct: expressed in transfected cells; host or cells: HEK cells (membrane extract)
Method: as §3, §4

[6] = Microsomal stability (Rat); format: in vitro ADME; details: rat microsomes
Method: as §1

[7] = molecular target: T4, NMDAR2D expressing HEK cell membranes (Homo sapiens, UniProt O15399+Q05586); test: NMDAR agonist assay, [3H]MK-801 binding, NMDAR2D; format: biochemical; details: for Emax: read-out: NMDAR2D: % maximal [3H]MK-801 binding relative to 1 mM glycine; for EC50: [3H]MK-801 binding, read-out: NMDAR2D: log EC50 (converted)
T4 construct: expressed in transfected cells; host or cells: HEK cells (membrane extract)
Method: as §3, §4

[8] = molecular target: T5, NMDAR2A expressing HEK cell membranes (Homo sapiens, UniProt Q05586+Q12879); test: NMDAR agonist assay, [3H]MK-801 binding, NMDAR2A; format: biochemical; details: for EC50: [3H]MK-801 binding
T5 construct: expressed in transfected cells; host or cells: HEK cells (membrane extract)
Method: as §3, §4

[9] = molecular target: T6, NMDAR2A expressing HEK cell membranes (Homo sapiens, UniProt Q12879); test: NMDAR agonist assay, [3H]MK-801 binding, NMDAR2A; format: biochemical; details: 50 μM glutamate; relative to 1 mM glycine
T6 construct: expressed in transfected cells; host or cells: HEK cells (membrane extract)
Method: as §3, §4

[10] = Oral pharmacokinetics (plasma, brain, CSF); format: in vivo; details: Sprague Dawley rats, per os, 10 mg/kg; for AUC(0-t) / Tmax / Cmax / bioavailability: Sprague Dawley, rat, plasma, po; for Tmax: normal saline, read-out: Tmax; for Cmax: read-out: Cmax
Method: In another experiment, Sprague Dawley rats were dosed per os using a normal saline formulation containing 10 mg/kg of the compounds identified in the table below. Plasma, brain, and CSF samples were analyzed at various time points over a 24 hour period. The table below summarizes the results of the oral pharmacokinetics.

IV pharmacokinetics = format: in vivo; details: Sprague Dawley, rat, in vivo, iv, 2 mg/kg, Sprague Dawley rats, normal saline; for C0: read-out: C0; for Vd: read-out: Vss
Method: Sprague Dawley rats were dosed intravenously using a normal saline formulation containing 2 mg/kg of the compounds identified in the below table. The table below summarizes the results of the IV pharmacokinetics.

[11] = 50 μM glutamate, relative to 1 mM glycine, read-out: NMDAR2C A: % maximal [3H]MK-801 binding relative to 1 mM glycine
[12] = 50 μM glutamate, read-out: NMDAR2B log EC50 (converted)
[13] = 50 μM glutamate, relative to 1 mM glycine
[14] = 50 μM glutamate, read-out: NMDAR2A: log EC50 (converted)
[15] = 50 μM glutamate, read-out: NMDAR2C: log EC50 (converted)

T4 sequence (O15399 28-1336, other chains not shown): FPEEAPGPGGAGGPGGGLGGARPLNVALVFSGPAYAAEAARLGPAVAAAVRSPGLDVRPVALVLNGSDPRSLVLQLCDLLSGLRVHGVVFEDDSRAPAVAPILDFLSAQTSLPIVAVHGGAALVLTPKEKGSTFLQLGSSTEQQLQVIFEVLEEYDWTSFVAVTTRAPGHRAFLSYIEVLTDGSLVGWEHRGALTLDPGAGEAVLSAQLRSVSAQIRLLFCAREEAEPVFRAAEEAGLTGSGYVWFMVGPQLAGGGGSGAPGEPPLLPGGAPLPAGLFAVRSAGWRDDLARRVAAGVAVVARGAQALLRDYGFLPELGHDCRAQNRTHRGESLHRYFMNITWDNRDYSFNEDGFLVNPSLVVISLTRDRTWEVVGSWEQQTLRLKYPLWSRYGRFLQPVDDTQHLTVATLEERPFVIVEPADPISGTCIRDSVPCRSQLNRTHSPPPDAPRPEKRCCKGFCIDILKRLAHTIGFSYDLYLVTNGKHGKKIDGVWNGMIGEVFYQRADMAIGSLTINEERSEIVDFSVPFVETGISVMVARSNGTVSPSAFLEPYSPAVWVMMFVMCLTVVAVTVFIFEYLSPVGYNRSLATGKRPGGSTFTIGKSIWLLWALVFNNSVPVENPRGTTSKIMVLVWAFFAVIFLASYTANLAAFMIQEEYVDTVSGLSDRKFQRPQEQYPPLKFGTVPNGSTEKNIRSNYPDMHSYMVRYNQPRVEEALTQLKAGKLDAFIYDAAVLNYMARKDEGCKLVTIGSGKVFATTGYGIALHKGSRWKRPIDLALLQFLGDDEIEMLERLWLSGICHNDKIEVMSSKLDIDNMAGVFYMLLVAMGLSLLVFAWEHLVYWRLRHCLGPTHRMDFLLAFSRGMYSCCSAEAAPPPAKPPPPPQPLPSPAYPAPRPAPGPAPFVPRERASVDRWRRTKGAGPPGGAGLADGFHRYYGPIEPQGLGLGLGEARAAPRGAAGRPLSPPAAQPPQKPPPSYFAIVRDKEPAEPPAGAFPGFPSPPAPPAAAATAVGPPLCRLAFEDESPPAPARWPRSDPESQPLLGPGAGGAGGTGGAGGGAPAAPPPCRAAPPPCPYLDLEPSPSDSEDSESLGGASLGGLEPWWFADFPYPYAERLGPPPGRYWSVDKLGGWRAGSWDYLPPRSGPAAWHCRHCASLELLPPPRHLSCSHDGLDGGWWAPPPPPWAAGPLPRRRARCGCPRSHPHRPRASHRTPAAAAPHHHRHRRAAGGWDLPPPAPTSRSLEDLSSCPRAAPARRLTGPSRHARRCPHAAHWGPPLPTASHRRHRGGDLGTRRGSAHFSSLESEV
T1 sequence (Q14957 20-1233, other chains not shown): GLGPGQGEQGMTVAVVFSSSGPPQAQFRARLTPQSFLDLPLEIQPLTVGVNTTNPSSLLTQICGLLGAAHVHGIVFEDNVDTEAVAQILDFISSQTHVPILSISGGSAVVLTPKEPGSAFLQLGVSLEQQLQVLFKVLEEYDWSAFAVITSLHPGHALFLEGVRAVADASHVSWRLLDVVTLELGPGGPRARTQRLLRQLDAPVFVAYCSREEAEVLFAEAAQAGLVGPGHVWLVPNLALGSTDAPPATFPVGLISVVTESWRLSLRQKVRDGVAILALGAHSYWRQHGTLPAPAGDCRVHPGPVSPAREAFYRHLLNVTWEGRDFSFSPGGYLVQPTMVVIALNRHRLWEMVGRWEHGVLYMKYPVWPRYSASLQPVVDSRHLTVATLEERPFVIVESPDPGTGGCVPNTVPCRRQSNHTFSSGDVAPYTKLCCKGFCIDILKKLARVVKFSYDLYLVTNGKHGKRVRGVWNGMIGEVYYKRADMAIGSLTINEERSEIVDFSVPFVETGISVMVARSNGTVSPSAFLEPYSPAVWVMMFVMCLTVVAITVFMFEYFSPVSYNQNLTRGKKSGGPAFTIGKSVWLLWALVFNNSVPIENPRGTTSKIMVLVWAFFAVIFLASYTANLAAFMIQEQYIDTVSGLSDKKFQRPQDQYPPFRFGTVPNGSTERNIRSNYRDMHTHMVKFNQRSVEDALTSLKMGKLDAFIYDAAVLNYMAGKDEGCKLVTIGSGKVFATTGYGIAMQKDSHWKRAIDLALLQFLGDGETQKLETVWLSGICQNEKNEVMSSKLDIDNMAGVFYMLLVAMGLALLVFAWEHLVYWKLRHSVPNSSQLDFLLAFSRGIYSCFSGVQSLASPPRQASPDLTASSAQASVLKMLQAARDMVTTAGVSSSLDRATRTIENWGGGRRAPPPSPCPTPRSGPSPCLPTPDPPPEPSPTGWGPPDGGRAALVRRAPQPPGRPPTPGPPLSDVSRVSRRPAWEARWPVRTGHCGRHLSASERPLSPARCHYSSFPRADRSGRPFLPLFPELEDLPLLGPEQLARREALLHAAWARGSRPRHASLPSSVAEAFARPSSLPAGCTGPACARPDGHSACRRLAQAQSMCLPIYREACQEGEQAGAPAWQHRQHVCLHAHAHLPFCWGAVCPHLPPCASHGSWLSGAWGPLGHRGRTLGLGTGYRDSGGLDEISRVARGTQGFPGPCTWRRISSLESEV
T2 sequence (Q13224 27-1484, other chains not shown): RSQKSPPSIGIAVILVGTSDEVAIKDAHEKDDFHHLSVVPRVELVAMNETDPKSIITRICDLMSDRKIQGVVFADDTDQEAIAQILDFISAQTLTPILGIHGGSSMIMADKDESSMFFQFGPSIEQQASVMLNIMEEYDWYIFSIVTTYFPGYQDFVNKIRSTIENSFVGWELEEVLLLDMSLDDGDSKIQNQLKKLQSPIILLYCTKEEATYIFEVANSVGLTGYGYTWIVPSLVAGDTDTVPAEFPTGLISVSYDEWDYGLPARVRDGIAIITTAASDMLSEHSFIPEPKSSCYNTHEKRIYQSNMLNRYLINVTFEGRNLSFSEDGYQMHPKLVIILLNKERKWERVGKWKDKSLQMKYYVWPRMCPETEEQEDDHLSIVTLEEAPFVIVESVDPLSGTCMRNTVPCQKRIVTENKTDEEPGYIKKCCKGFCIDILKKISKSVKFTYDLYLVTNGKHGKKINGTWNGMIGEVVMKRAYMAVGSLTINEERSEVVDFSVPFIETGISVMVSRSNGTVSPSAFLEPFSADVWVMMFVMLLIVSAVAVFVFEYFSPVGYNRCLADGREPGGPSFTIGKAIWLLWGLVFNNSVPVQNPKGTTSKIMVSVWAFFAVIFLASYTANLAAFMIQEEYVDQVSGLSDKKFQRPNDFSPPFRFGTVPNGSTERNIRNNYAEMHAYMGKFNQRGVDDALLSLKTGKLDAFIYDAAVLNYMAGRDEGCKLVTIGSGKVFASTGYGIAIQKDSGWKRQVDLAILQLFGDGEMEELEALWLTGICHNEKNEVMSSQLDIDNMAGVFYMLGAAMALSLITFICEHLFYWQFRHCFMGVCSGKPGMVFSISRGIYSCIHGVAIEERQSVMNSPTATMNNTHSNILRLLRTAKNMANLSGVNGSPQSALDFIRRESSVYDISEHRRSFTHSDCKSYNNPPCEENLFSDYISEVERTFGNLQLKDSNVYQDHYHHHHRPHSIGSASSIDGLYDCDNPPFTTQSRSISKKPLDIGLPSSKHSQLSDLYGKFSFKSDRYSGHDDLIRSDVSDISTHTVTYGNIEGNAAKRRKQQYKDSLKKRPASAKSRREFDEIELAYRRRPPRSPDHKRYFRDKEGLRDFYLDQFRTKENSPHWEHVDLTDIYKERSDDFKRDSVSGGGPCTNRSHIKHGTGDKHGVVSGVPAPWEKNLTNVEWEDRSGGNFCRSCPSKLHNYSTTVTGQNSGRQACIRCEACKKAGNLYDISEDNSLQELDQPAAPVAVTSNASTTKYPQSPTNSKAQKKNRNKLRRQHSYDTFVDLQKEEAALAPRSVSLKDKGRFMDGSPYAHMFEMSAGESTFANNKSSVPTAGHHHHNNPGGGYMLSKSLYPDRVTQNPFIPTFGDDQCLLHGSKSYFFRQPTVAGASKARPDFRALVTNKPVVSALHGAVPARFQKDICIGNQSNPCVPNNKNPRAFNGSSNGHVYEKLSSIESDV

Structure (SMILES): CN1C2(CCC13CNC3=O)CNC2=O (single isomer, unassigned) [AB-2, 5-methyl-2,5,8-triazadispiro[3.1.36.24]undecane-1,7-dione]
- Microsomal (Human): percent of compound remaining after 60 minutes [1]: 72%
- Plasma (Human): percent of compound remaining after 60 minutes (Plasma stability (Human)): 86%
- Max Effect (mean number of 50 kHz USVs per 15 seconds) ([2]; dose 0.001-1 mg/kg): ** (**: 11-16.9)
- EC50 ([3]; NMDAR2C: log EC50, 50 μM glutamate): < 1 nM
- Emax ([3]; read-out: NMDAR2C: % maximal [3H]MK-801 binding relative to 1 mM glycine): < 100%
- Plasma (Rat): percent of compound remaining after 60 minutes (Plasma stability (Rat)): 83%
- NMDAR2B: % maximal [3H]MK-801 binding relative to 1 mM glycine [4]: + (<100%=+)
- EC50 ([5]; NMDAR2B: log EC50, 50 μM glutamate): < 1 nM
- Microsomal (Rat): percent of compound remaining after 60 minutes [6]: 78%
- Emax [7]: < 100%
- EC50 ([8]; NMDAR2A: log EC50, 50 μM glutamate): > 100 nM
- NMDAR2A: % maximal [3H]MK-801 binding relative to 1 mM glycine [9]: − (−=0)

Structure (SMILES): C[C@@H](O)[C@H](NC(=O)C1CCC2(CNC2=O)N1)C(N)=O (single isomer, unassigned) [AQ-1]
- Microsomal (Human): percent of compound remaining after 60 minutes [1]: 100%
- Plasma (Human): percent of compound remaining after 60 minutes (Plasma stability (Human)): 100%
- Max Effect (mean number of 50 kHz USVs per 15 seconds) ([2]; dose 0.1 mg/kg, 0.1 mg/kg): ** (**: 11-16.9)
- Emax [3, 11]: < 100%
- Plasma (Rat): percent of compound remaining after 60 minutes (Plasma stability (Rat)): 100%
- EC50 [5, 12]: < 1 nM
- Emax ([5]; 50 μM glutamate): < 100%
- Microsomal (Rat): percent of compound remaining after 60 minutes [6]: 84%
- EC50 ([7]; 50 μM glutamate): < 1 nM
- Emax [7, 13]: < 100%
- % F [10]: 2%
- CSF Cmax [10]: 0 ng/mL
- Brain Cmax [10]: 0 ng/mL
- AUC(0-t) [10]: 350 ng·h/mL
- Tmax [10]: 49.8 min
- Cmax [10]: 133 ng/mL
- AUC(0-t) (IV pharmacokinetics): 3330 ng·h/mL
- clearance (IV pharmacokinetics): 9.84 mL/min/kg
- half-life (IV pharmacokinetics): 21.6 min
- C0 (IV pharmacokinetics): 6820 ng/mL
- Vd (IV pharmacokinetics): 0.28 L/kg
- EC50 [8, 14]: < 1 nM
- Emax ([8]; 50 μM glutamate, relative to 1 mM glycine, read-out: NMDAR2A: % maximal [3H]MK-801 binding relative to 1 mM glycine): < 100%

Structure (SMILES): CC(C)(C)OC(=O)N1CC2(CN(OCc3ccccc3)C2=O)CC12CN(OCc1ccccc1)C2=O (single isomer, unassigned) [AW, tert-butyl 2,8-bis(benzyloxy)-1,7-dioxo-2,8,10-triazadispiro[3.1.36.24]undecane-10-carboxylate]
- Microsomal (Human): percent of compound remaining after 60 minutes [1]: 2%
- Plasma (Human): percent of compound remaining after 60 minutes (Plasma stability (Human)): 90%
- Max Effect (mean number of 50 kHz USVs per 15 seconds) ([2]; dose 0.1 mg/kg): ** (**: 11-16.9)
- EC50 [3, 15]: < 1 nM
- Emax [3, 11]: < 100%
- Plasma (Rat): percent of compound remaining after 60 minutes (Plasma stability (Rat)): 0%
- NMDAR2B: % maximal [3H]MK-801 binding relative to 1 mM glycine [4]: ++ (>100%=++)
- Microsomal (Rat): percent of compound remaining after 60 minutes [6]: 0%
- EC50 ([7]; 50 μM glutamate): < 1 nM
- Emax [7, 13]: < 100%
- EC50 [8, 14]: < 1 nM
- NMDAR2A: % maximal [3H]MK-801 binding relative to 1 mM glycine [9]: + (<100%=+)

Structure (SMILES): CC(C)(C)OC(=O)N1C(C(N)=O)CCC12CN(OCc1ccccc1)C2=O (single isomer, unassigned) [BH, tert-butyl 2-(benzyloxy)-6-carbamoyl-1-oxo-2,5-diazaspiro[3.4]octane-5-carboxylate]
- Microsomal (Human): percent of compound remaining after 60 minutes [1]: 100%
- Plasma (Human): percent of compound remaining after 60 minutes (Plasma stability (Human)): 90%
- Max Effect (mean number of 50 kHz USVs per 15 seconds) ([2]; dose 0.1 mg/kg): ** (**: 11-16.9)
- EC50 [3, 15]: < 1 nM
- Emax [3, 11]: > 100%
- Plasma (Rat): percent of compound remaining after 60 minutes (Plasma stability (Rat)): 95%
- NMDAR2B: % maximal [3H]MK-801 binding relative to 1 mM glycine [4]: + (<100%=+)
- EC50 [5, 12]: < 1 nM
- Microsomal (Rat): percent of compound remaining after 60 minutes [6]: 100%
- CSF Cmax [10]: 36.66 ng/mL
- Brain Cmax [10]: 0 ng/mL
- AUC(0-t) [10]: 614 ng·h/mL
- bioavailability [10]: 18%
- Tmax [10]: 15 min
- Cmax [10]: 859 ng/mL
- AUC(0-t) (IV pharmacokinetics): 656 ng·h/mL
- clearance (IV pharmacokinetics): 50.5 mL/min/kg
- half-life (IV pharmacokinetics): 20.4 min
- C0 (IV pharmacokinetics): 2390 ng/mL
- Vd (IV pharmacokinetics): 0.82 L/kg
- EC50 [8, 14]: > 100 nM
- NMDAR2A: % maximal [3H]MK-801 binding relative to 1 mM glycine [9]: − (−=0)

Structure (SMILES): C[C@@H](O)[C@@H](C(N)=O)N1CC2(CCC3(CN([C@H](C(N)=O)[C@@H](C)O)C3=O)N2C(=O)OC(C)(C)C)C1=O (stereo partly drawn) [BY, tert-butyl 2,8-bis((2S,3R)-1-amino-3-hydroxy-1-oxobutan-2-yl)-1,7-dioxo-2,5,8-triazadispiro[3.1.36.24]undecane-5-carboxylate]
- Microsomal (Human): percent of compound remaining after 60 minutes [1]: 100%
- Plasma (Human): percent of compound remaining after 60 minutes (Plasma stability (Human)): 81%
- Max Effect (mean number of 50 kHz USVs per 15 seconds) ([2]; dose 0.1 mg/kg): ** (**: 11-16.9)
- EC50 [3, 15]: < 1 nM
- Emax [3, 11]: < 100%
- Plasma (Rat): percent of compound remaining after 60 minutes (Plasma stability (Rat)): 82%
- EC50 [5, 12]: < 1 nM
- Emax ([5]; 50 μM glutamate): > 100%
- Microsomal (Rat): percent of compound remaining after 60 minutes [6]: 81%
- EC50 ([7]; 50 μM glutamate): > 100 nM
- Emax [7, 13]: 0%
- CSF Cmax [10]: 0 ng/mL
- Brain Cmax [10]: 0 ng/mL
- AUC(0-t) [10]: 486 ng·h/mL
- bioavailability [10]: 2%
- Tmax [10]: 49.8 min
- Cmax [10]: 156 ng/mL
- AUC(0-t) (IV pharmacokinetics): 5960 ng·h/mL
- clearance (IV pharmacokinetics): 5.6 mL/min/kg
- half-life (IV pharmacokinetics): 38.4 min
- C0 (IV pharmacokinetics): 10200 ng/mL
- Vd (IV pharmacokinetics): 0.15 L/kg
- EC50 [8, 14]: > 100 nM

From US11028095B2, “Spiro-lactam and bis-spiro-lactam NMDA receptor modulators and uses thereof” (Aptinyx Inc., priority 2016, dated 2021)
